According to publication PMC7287882, “Dual miRNases for Triple Incision of miRNA Target: Design Concept and Catalytic Performance” (Molecules, 2020):

Legend:
Type in all cases: biochemical
[1] = test system: miR-155; assay: Ribonuclease activity assay with DC or ON and RNase H, miR-155
Description: (§1) It is known that DNA-like antisense oligonucleotides after binding to target RNAs form a substrate for intracellular endonuclease RNases H. RNA hydrolysis in RNA-DNA heteroduplex by RNase H1 occurs at a distance of 6–10 nucleotides from the 5′-end of RNA (approximately one turn of the helix). Our design of the Dual conjugates here was carried out in such a way to ensure that their heteroduplexes with the matching miRNA sequences could serve as potential substrates for RNase H. To achieve that, we ensured that the length of the oligonucleotide recognition motifs A and B within the DC was 8–10 nt, which was expected to be sufficient for interaction and cleavage by RNase H (see Figure 1 and Table 1). As indicated above, a few adenine aromatic basis within each recognition motifs A and B were replaced with 2-aminoadenines to enhance the hybridization ability of the DC with miRNA. […] In order to verify this, as well as to evaluate the ability of RNase H to contribute to the miRNA cleavage catalyzed by DC, we studied the kinetics of the target miRNA cleavage performed (1) by the DC alone; (2) by RNase H, when the target miRNA was hybridized with the nonconjugated Dual oligonucleotide (ON); and (3) by both DC and RNase H present in the same reaction mixture. The study was performed against miR-17, miR-155 and miR-21 using a 20-fold excess of DCs or respective oligonucleotides over the matching miRNA (see Table 1 for sequences).
Figure 6 Cleavage kinetics of 5′-[^32P]-labeled miRNAs by DCs and/or RNase H. (a,d,g). […]
(§2) The reaction mixture (10 µL) containing 20 mM Tris-HCl, pH 7.8, 40 mM KCl, 8 mM MgCl2, 1 mM DTT, 0.02 mg/mL BSA, 800 cpm (Cherenkov’s counting) of [^32P]-miRNA, 1 µM unlabeled miRNA, 20 µM either DC or Dual oligonucleotide was incubated at 37 °C for 20 min then RNase H (5 or 100 U/mL) was added and the mixture was further incubated for 48 h. Aliquots were taken at 0, 1, 6, 24 and 48 h then the reaction was quenched, RNA cleavage products were collected and analyzed as described above.

[2] = test system: miR-18a; assay: Ribonuclease activity assay at different concentrations of MgCl2; settings: 50 mM Tris-HCl pH 7.0, 100 mM KCl, 1 mM DTT, 0.02 mg/mL BSA, 37 °C, 48 h; for Cleavage: miRNA 1 µM, DC 20 µM, mean ± s.e.
Description: In order to understand the effect of Mg^2+ ions on the efficiency and specificity of miRNA cleavage by DCs, miR-18a was incubated with the matching DC in the buffer containing 50 mM Tris-HCl, pH 7.0, 100 mM KCl, 1 mM DTT, 0.02 mg/mL BSA, but with different Mg^2+ concentration varied from 0 to 15 mM.
Reaction with different concentration of MgCl2 was performed in reaction mixtures (8 µL) containing 320 cpm (Cherenkov’s counting) of [^32P]-miR-18a, 1 μM unlabeled miRNA, 20 µM of miR-18a-DC in buffers contained 100 mM KCl, 50 mM Tris-HCl pH 7.0, 1mM DTT, 0.02 mg/mL BSA and MgCl2 at concentration 0, 2, 4, 8 or 15 mM at 37 °C for 48 h. RNA cleavage products were collected and analyzed as described above.

[3] = test system: miR-21; assay: Ribonuclease activity assay with DC or ON and RNase H, miR-21
Description: as §1
Figure 6 Cleavage kinetics of 5′-[^32P]-labeled miRNAs by DCs and/or RNase H. (a,d,g). Radioautographs of 18% denaturing PAAG showing the profiles of cleavage of miR-17, miR-155 and miR-21, respectively. Duplexes formed by 5′-[^32P]-miRNA (1 µM) and DC or ON (20 µM) were incubated at 37 °C for 48–72 h. RNase H was taken in the concentration of 5 or 100 u/mL. Lanes Im and T1–imidazole ladder and partial RNA digestion with RNase T1, respectively; control–RNA was incubated in the absence of DC or ON and in the presence of RNase H (100 u/mL); (b,e,h) Time dependency of cleavage of miR-17, miR-155 and miR-21, respectively, by DCs and/or RNase H. Data are presented as mean ± s.e. *—indicates statistically significant difference with p < 0.05; (c,f,i). […]
as §2

ACCCCTAT–linker 1–[GRLRL]2–linker 2–TTAGCATTAA [miRNA-155-DC, Dual oligonucleotide-peptide conjugate targeted to miR-155: catalytic peptide [LRLRG]2 between two 2-aminoadenine-containing oligodeoxyribonucleotides]
maximum extent of cleavage with DC and RNase H relative to DC alone [1]: about 2 fold
total extent of cleavage in the complex with DC relative to the miRNA/ON complex ([1]; RNase H 5 u/mL): ~1.5 fold
maximum extent of cleavage with DC and RNase H ([1]; miRNA 1 µM, DC 20 µM, buffer (2), 37 °C, plateau): 75%

TATCTGC–linker 1–[GRLRL]2–linker 2–ATGCACCTTA [miRNA-18a-DC, Dual oligonucleotide-peptide conjugate targeted to miR-18a: catalytic peptide [LRLRG]2 between two 2-aminoadenine-containing oligodeoxyribonucleotides]
Cleavage ([2]; Mg2+ 0 mM): 26.4±4.0%
Cleavage ([2]; Mg2+ 2 mM): 28.8±3.9%
Cleavage ([2]; Mg2+ 4 mM): 24.3±2.7%
Cleavage ([2]; Mg2+ 8 mM): 23.1±3.1%
Cleavage ([2]; Mg2+ 15 mM): 27.2±4.3%
ribonuclease activity of DC (cleavage), unaffected by addition of Mg2+ ([2]; Mg2+ varied from 0 to 15 mM): approximately 26%

TCAACATC–linker 1–[GRLRL]2–linker 2–GATAAGCTA [miRNA-21-DC, Dual oligonucleotide-peptide conjugate targeted to miR-21: catalytic peptide [LRLRG]2 between two 2-aminoadenine-containing oligodeoxyribonucleotides]
increase in rate of cleavage by DC in the presence of RNase H ([3]; RNase H 5 u/mL, versus DC alone): 4 fold
total extent of cleavage by DC and RNase H ([3]; RNase H 5 u/mL, miRNA 1 µM, DC 20 µM, buffer (2), 37 °C): 40%
increase in rate of cleavage compared with DC alone ([3]; RNase H 100 u/mL): 20 fold
cleavage by DC and RNase H ([3]; RNase H 100 u/mL, completed in the first hour of incubation): 100%
